Experimental findings from patent publication US20040247674A1, “Drug delivery system” (priority 2001, published 2004) are described below.

SMILES strings stand for the structures.

This data set in a line: release rates of active agents from core-membrane implants. Format: physicochemical. The note with it: for release rate over time: Example 4 implant (FIG. 12): membrane PDMS/trifluoropropyl modified PDMS, fluoro-content 55 wt-%, thickness 0.25 mm. The source says:
The implant structure was as disclosed in FIG. 2. The first part of the core consisted of PDMS comprising levonorgestrel and the length was 35 mm. The second part of the core consisted of PEO-PDMS having 50% of PEO, comprising estradiol, and the length was 8 mm.
The core parts were encased in a membrane consisting of PEO-PDMS in a ratio of 10:90. The thickness of the membrane was 0.2 mm and the outer diameter of the implant 2.48 mm.
The implant structure was as disclosed in FIG. 2. The first part of the core consisted of PEO-PDMS in a ratio of 50:50 comprising compound 1 and the length was 34 mm. The second part of the core consisted of PEO-PDMS having 50% of PEO, comprising estradiol, and the length was 6 mm.
The core parts were encased in a membrane consisting of PEO-PDMS in a ratio of 20:80. The thickness of the membrane was 0.2 mm and the outer diameter of the implant 2.48 mm.
The implant structure was as disclosed in FIG. 2. The first part of the core consisted of Pt-catalysed PDMS comprising 60 weight-% MENT having a length of 44 mm and a diameter of 3.0 mm. The second part of the core consisted of peroxide-catalysed PDMS comprising 50 weight-% gestodene having a length of 12 mm and a diameter of 3.0 mm.
Both core parts were encapsulated by a membrane consisting of a mixture of PDMS and trifluoropropyl modified PDMS. The fluoro-content in the membrane varied from 55 weight-% to 75 weight-%. The thickness of the membrane was 0.25 or 0.35 mm and thus the outer diameter of the implant 3.5 or 3.7 mm, respectively.
MENT is represented by the trinagles and gestodene by the lozenges.

As for `C[C@@H]1CC2=CC(=O)CC[C@@H]2[C@H]2CC[C@]3(C)[C@@H](O)CC[C@H]3[C@@H]21` [MENT, 7-α-methyl-19-nortestosterone], the “release rate over time” value is recorded as “essentially constant over time”.
Turning to `CC(=O)c1ccc(C2C[C@@]3(C)[C@@H](CCC3(O)C(F)(F)C(F)(F)F)[C@@H]3CCC4=CC(=O)CCC4=C23)cc1` (stereo partly shown) [compound 1, 11-(4-Acetylphenyl)-17-hydroxy-17-(1,1,2,2,2-pentafluoroethyl)estra-4,9-dien-3-one], for the setting “Example 2 implant (FIG. 10): PEO-PDMS 50:50 core part 34 mm, membrane PEO-PDMS 20:80, 0.2 mm, target 50 μg/day”, the “release rate of compound 1 versus target” value is recorded as “target release rates were obtained”.
As to `C#C[C@]1(O)C=C[C@H]2[C@@H]3CCC4=CC(=O)CC[C@@H]4[C@H]3CC[C@@]21CC` [gestodene], the “release rate over time” value is on record as “essentially constant over time”. The “release rate of gestodene, membrane thickness 0.25 mm compared with 0.35 mm” value (Example 4 implant (FIG. 14): membrane fluoro-content 60 wt-%) was “higher”.
